According to patent US20100331330A1, “METHODS AND COMPOSITIONS FOR TREATING ISCHEMIC STROKE” (priority 2006, published 2010):
“Also recorded” adds a separate entry of the source. Where two headings read alike, the source gives them in different places.

Assays:
[1] = test system: rats subjected to middle cerebral artery occlusion (MCAO); conditions: for infarction volume relative to vehicle injected rats: assayed 24 h after MCAO
Text: Male Wistar rats, 250-350 g, were obtained from Charles River (Wilmington, Mass.). Animals were housed and cared for in the Animal Resource Center and allowed free access to food and water before and after surgery. All procedures were approved by the Institutional Animal Care and Use Committee of Case Western Reserve University.
A 4.0 nylon suture with a flame rounded tip was advanced through the internal carotid artery to occlude the MCA while cerebral blood flow was monitored using laser doppler (Perimed AB, Jarfalla, Sweden). At the time of reperfusion rats were again anesthetized and the suture removed with cerebral blood flow monitoring to ensure reperfusion. Arterial blood pressure, arterial blood gases and temperature were all monitored and controlled during the length of the procedure.
Control animals were injected with 0.1 ml DMSO.
Rats were euthanized by exposure to 5% halothane until breathing ceased. They then underwent intracardiac perfusion first with PBS and then with 4% paraformaldehyde. Brains were isolated and immersion fixed in 4% paraformaldehyde overnight. Tissue was cryoprotected in 30% sucrose in PBS. Twenty micron frozen sections were collected every […] beginning at the level of the forceps minor corpus callosum and extending through the hippocampus. Sections were stained with Thionin and the area of infarction measured using Bioquant computer software (R&M Biometrics, Nashville, Tenn.) by subtracting the uninfarcted tissue in the ischemic hemisphere from the volume of the contralateral hemisphere. This method corrects for post-ischemic edema.
Male Wistar rats, 250-350 g, were obtained from Charles River (Wilmington, Mass.). […] Animals were housed and cared for in the Animal Resource Center and allowed free access to food and water before and after surgery. […] The tail artery was exposed and cannulated to measure mean arterial blood pressure and to obtain blood for blood gas measurements during surgery. Animals in which normal temperature, blood pressure and gases could not be maintained were excluded from the study. MCAO was performed as previously described. Briefly, the bifurcation of the common carotid artery was exposed. The external carotid artery was isolated and a suture placed 0.5 cm from the bifurcation. Following electrocoagulation distal to the suture the external carotid was cut between the suture and the electrocoagulated segment. A suture was applied to the common carotid artery such that it could be removed later. A loop of suture was then placed under the internal carotid artery and the artery elevated to transiently occlude blood flow. A small nick was made in the wall of the external carotid artery. Through this nick a 22 mm length of 4.0 Ethicon suture, its tip rounded by heating near a flame, was gently threaded from the external to the internal carotid artery lumen to a distance of 18 mm from the bifurcation of the carotid. The thread was held in place with a suture around the stump of the external carotid artery and the suture around the internal carotid artery released. The catheter was removed from the tail artery and both incisions were closed. The rats were then allowed to recover from anesthesia. […] The neck incision was reopened and the 4.0 Ethicon suture removed. The suture that held it in place was tightened and the suture around the common carotid artery was removed. After confirmation of reperfusion by visual inspection, the incision was closed and the animal allowed to recover.
Twenty micron frozen sections of paraformaldehyde fixed brains were collected every 1000 μm beginning at the level of the forceps minor corpus callosum and extending through the hippocampus. The slides were stained with Thionin. The sections were then trans-illuminated and the image transmitted to a computer screen.

myeloperoxidase-IR cells = assay: Quantification of myeloperoxidase-IR cells (leukocyte infiltration) after MCAO; format: in vivo, rat
Text: Frozen sections of the brains were cut coronally at ten microns. Sections were collected every 1000 mm beginning at the level of the forceps minor corpus callosum and extending through the hippocampus. Ten micron cryostat sections were labeled using either mouse anti-ICAM (Sertec, UK) or rabbit antimyeloperoxidase (Dacko) antibodies in 5% rat serum. Primary antibodies were visualized using either goat anti-mouse conjugated to Oregon Green or goat anti-rabbit conjugated to Oregon-Green (Molecular Probes, Eugene, Oreg.) in 5% rat serum. Adjacent sections were incubated without primary antisera to control for non-specific binding of the secondary antiserum. Sections were viewed using a fluorescent microscope and images acquired and stored using Spot Advanced imaging software (Spot Image Corporation, Chantilly, Va.). […]
Myeloperoxidase-IR cells were quantified from cryostat sections through the maximal area of infarction labeled with rabbit anti-myeloperoxidase antibody followed by anti-rabbit antibodies conjugated to Oregon-green. Digital photographs of high powered fields covering a representative section were analyzed in Adobe Photoshop by overlaying a grid and counting all myeloperoxidase-IR cells. The average number of myeloperoxidase-IR cells per high powered field (360 μm2) was calculated and plotted using data from at least three animals.

ICAM = ICAM immunohistochemistry of brain sections after MCAO; format: in vivo, rat; conditions: rosiglitazone 0.1 mg/kg or pioglitazone 1 mg/kg 24 h before and at time of MCAO; sacrificed 24 h later
Text: Animals were euthanized and brains prepared in the same manner described for infarct volume determination. Frozen sections of the brains were cut coronally at ten microns. Sections were collected every 1000 mm beginning at the level of the forceps minor corpus callosum and extending through the hippocampus. Ten micron cryostat sections were labeled using either mouse anti-ICAM (Sertec, UK) or rabbit antimyeloperoxidase (Dacko) antibodies in 5% rat serum. Primary antibodies were visualized using either goat anti-mouse conjugated to Oregon Green or goat anti-rabbit conjugated to Oregon-Green (Molecular Probes, Eugene, Oreg.) in 5% rat serum. Adjacent sections were incubated without primary antisera to control for non-specific binding of the secondary antiserum. Sections were viewed using a fluorescent microscope and images acquired and stored using Spot Advanced imaging software (Spot Image Corporation, Chantilly, Va.). Some sections were also imaged using confocal microscopy.

ICAM mRNA = ICAM mRNA by real time PCR after MCAO; format: in vivo, rat; conditions: rosiglitazone 0.1 mg/kg or pioglitazone 1 mg/kg 24 h before and at time of 2 hour MCAO; sacrificed 24 h later
LPL mRNA = assay: Lipoprotein lipase (LPL) mRNA by real time PCR after MCAO; format: in vivo, rat; conditions: rosiglitazone 0.1 mg/kg, pioglitazone 1.0 mg/kg; 24 h before and at time of 2 hour MCAO; tissue 24 h later
Text: At the time of sacrifice the animal was placed in an anesthesia chamber and exposed to 5% halothane, 30% oxygen, 65% nitrous oxide until it ceased breathing. The rat was the, processed for either histologic and immunocytochemical analysis or decapitated and the brain immediately dissected for mRNA isolation. Animals used for immunohistochemistry underwent intracardiac perfusion; the thoracic cavity was opened, a blunt needle placed through the left ventricle into the aorta and the right atrium cut. Animals were perfused through the heart, first with 0.1 M phosphate buffer and then with 4% paraformaldehyde (pH 7.4). The brain was removed from the rat and immersion fixed in 4% paraformaldehyde for an additional hour. Tissue was then transferred to 30% sucrose in phosphate buffer in order to cyroprotect it. Brains were mounted in OCT sectioning medium and frozen sections cut at either twenty microns (for infarct volume determination) or ten microns (for immunocytochemistry). Animals used in real time PCR experiments were decapitated after euthanasia and the brain quickly removed.
A 2 mm thick coronal slice of tissue through the area of maximal infarction was quickly homogenized in Trizol (Gibco BRL, Rockville, Md.). […] RNA was isolated using Life Technologies Protocol (Rockville, Md.), and cDNA synthesized from 1.5 μg of total RNA. […]

[2] = two hour continuous monitoring; previously shown; cited from earlier work
[3] = test system: rodent models of cerebral ischemia; conditions: cited from earlier work
3T3-L1 cells = conditions: cited from earlier work
dopaminergic cell death = conditions: Parkinson's disease model; cited from earlier work

CCc1ccc(CCOc2ccc(CC3SC(=O)NC3=O)cc2)nc1 (stereo not shown) [pioglitazone, 5-[4-[2-(5-ethylpyridin-2-yl)ethoxyl]benzyl]thiazolidine-2,4-dione]
infarction volume relative to vehicle injected rats ([1]; 0.5 mg/kg IP 24 h before and at time of 2 hour MCAO): did not significantly reduce infarction volume
infarct volume compared to vehicle treated rats ([1]; 1 mg/kg IP 1 hour after onset of 2 hour MCAO): significantly reduce infarction volume; also recorded: significantly reduced
infarct volume compared to vehicle treated rats ([1]; 1 mg/kg IP 6 hours after onset of 2 hour MCAO): not when given three or six hours after MCAO; also recorded: no significant change in infarct volume
infarction volume relative to vehicle injected rats ([1]; 1 mg/kg IP 24 h before and at time of 2 hour MCAO): significantly reduced infarction size
infarction volume relative to vehicle injected rats ([1]; 1 mg/kg IP 24 h before and at time of 2 hour MCAO, listed as Pioglitazone): did significantly reduce infarction volume; also recorded: significantly reduced infarction volume
infarction volume relative to vehicle treated rats ([1]; 1 mg/kg IP 24 h before and at time of MCAO, permanent occlusion, listed as Pioglitazone): no significant protection was evident
infarction volume relative to vehicle injected rats ([1]; 3.5 mg/kg IP 24 h before and at time of 2 hour MCAO): did significantly reduce infarction volume
infarction volume relative to vehicle injected rats ([1]; 7 mg/kg IP 24 h before and at time of 2 hour MCAO): protection was lost
optimal dose for neuroprotection ([1]; IP 24 h before and at time of 2 hour MCAO, infarct volume 24 h after MCAO): 1 mg/kg
infarct volume compared to vehicle treated rats ([1]; pioglitazone 1 mg/kg or rosiglitazone 0.1 mg/kg 3 hours after MCAO onset, reperfusion at 2 hours (before treatment)): not when given three or six hours after MCAO; also recorded: infarction volumes which were similar to animals injected with vehicle; also recorded: no significant change in infarct volume; also recorded: infarction volumes similar to those previously seen in untreated and vehicle treated rats
infarction volume relative to rats reperfused at two hours ([1]; pioglitazone 1 mg/kg or rosiglitazone 0.1 mg/kg 3 hours after MCAO onset, reperfusion at 3 hours 15 minutes (after treatment)): neuroprotective when given up to three hours after MCAO, but only if reperfusion occurs after treatment; also recorded: significantly smaller infarctions volumes; also recorded: significantly reduced infarction volumes
myeloperoxidase-IR cells within the ischemic hemisphere (myeloperoxidase-IR cells; reperfused at 2 h and treated at 3 h, relative to treated at 3 h and reperfused at 3.25 h): significantly increased numbers of myeloperoxidase-IR cells
number of myeloperoxidase-IR cells per high powered field (myeloperoxidase-IR cells; rosiglitazone 0.1 mg/kg or pioglitazone 1 mg/kg at 3 h, reperfusion delayed to 3.25 h, relative to reperfusion at 2 h): significantly reduced
ICAM-IR in brain sections compared with vehicle treated rats (ICAM): less is seen
ICAM mRNA compared with vehicle treated rats (ICAM mRNA): significant reduction in ICAM mRNA
increase in LPL mRNA levels within the ischemic hemisphere (LPL mRNA): 307%
cerebral blood flow [2]: no significant change in cerebral blood flow
neuroprotection in rodent models of cerebral ischemia ([3]; in vivo): effective neuroprotective agents
efficacy of oral pretreatment ([3]; permanent ischemia): but not permanent ischemia
efficacy of oral pretreatment ([3]; transient ischemia): effective in transient
effect on PPARγ-corepressor complex (3T3-L1 cells): dissociation of the PPARγ-corepressor complex and transcriptional activation
dopaminergic cell death (dopaminergic cell death): attenuates dopaminergic cell death
